Columns and labels:
[1] = system: A2058; assay: Cell motility, Boyden chamber assay; assay type: cell-based, human; settings: 10 nM
Method: (§1) To check the migratory ability of cells, a Boyden Chamber assay was performed, which is based on a chamber of two medium-filled compartments separated by a […] pore size membrane (BD falcon). In this assay, depending on cell type 60,000-120,000 cells were seeded in the upper compartment of the membrane in serum free medium and were allowed to migrate through the pores of the membrane into the lower compartment, in which serum is present in the media. The serum acts as a chemoattractant. After an appropriate incubation time, the membrane between two compartments was fixed, stained and 6 different images from each membrane were taken. The number of migratory cells were counted using Image J analysis.
(§2) Different biological effects of miRNA-193a-3p have been tested in various cancer cell lines (see Table 13). For this, various cells were treated with miRNA-193a at different concentrations (1, 3, 10 nM). For all experiments controls (untreated, mock and scrambled) were measured. All assays were performed at 24h, 48h and 72h time points. Data shown in Table 13 are the results for miRNA-193a at 10 nM concentration at indicated time points. All the results have been quantified and normalized to the mock control.
(§3) miRNA-193a treatment in various cancer cell lines decreased cell viability over time as measured by either an MTS assay or by cell count. It enhanced apoptosis induction over time as measured by a caspase 3/7 apoptosis assay. […] It is of note that due to intrinsic characteristics and gene mutation status of each cell line, performing one method to detect apoptosis is not always ideal for all cell lines.

[2] = system: A549; assay: Cell motility, Boyden chamber assay; assay type: cell-based, human; settings: 10 nM; A549 (first of two symbols in the cell)
Method: as §1, §2, §3

[3] = system: HeP3B, SNU449; assay: Cell motility, Boyden chamber assay; assay type: cell-based, human; settings: 10 nM
Method: as §1, §2, §3

[4] = system: orthotopic human Hep3b hepatocellular carcinoma tumors; assay: Tumor growth inhibition, orthotopic Hep3b model, AFP levels and tumor weights (Example 4.3); assay type: in vivo, mice; settings: formulated in diamino lipid nanoparticles, iv
Method: Seven to 8 weeks old female SCID/Beige mice (Shanghai Lingchang Bio-Technology Co. Ltd, Shanghai, China) were orthotopically implanted with a single 2×2×2 mm piece of a subq grown Hep3b tumor into the left liver lobe. Mice were randomized based on day 21 AFP levels. At the time of randomization, the AFP levels (ng/ml plasma) ranged between 1019 and 19779 ng/ml (median 5203, IQR=2690-9498). Treatments started on day 22 and continued for three weeks (see Table 8 for dosing scheme). AFP was measured once a week (4 times in total), and BW was measured twice a week. At the end of the study tumor weights were also determined. QDx3, QDx5=one injection per day for three or five consecutive days; BIW=twice a week; BID=twice daily; po=per oral.

[5] = system: K-Ras, MCL1, ENTPD1 (CD39) and TIM-3; assay: PD effect: target gene mRNA in orthotopic 4T1 tumors by qPCR (Example 4.6); assay type: in vivo, mice; settings: 10 mg/kg iv QDx2; various time points 2-72 h post final dose
Method: To prepare cDNA, first 100 ng total RNA was mixed with Random Hexamers (Qiagen; final concentration 2 μM) in a final volume of 12.5 μl in NFW, denatured for 5 min at 70° C. and immediately cooled on ice. Next, 7.5 μl of a cDNA synthesis mix was added, consisting of 4 μl 5×RT Buffer (Promega), 0.4 μl 25 mM dNTPs (Promega), 1 μl 200 U/μL MMLV RT-enzyme (Promega), 0.5 μL 40 U/μL RNAse Inhibitor (Promega) and 1.6 μL NFW. The following cDNA synthesis protocol was used:
Six to eight weeks old female BALB/c mice (Shanghai Lingchang Bio-Technology Co. Ltd, Shanghai, China) were injected with 3×10^5 4T1 mouse tumor cells in PBS (0.1 mL/mouse) into the mammary fat pad. At the time of randomization, the tumor volumes (TVs) ranged between 252.30-370.45 mm^3. After randomization mice received similar treatments with similar dosing regimen (see Table 11). Mice were sacrificed at pre-determined time points (see Table 11). The tumors from each mouse were collected, snap frozen in liquid nitrogen and then stored at −80° C.
Assessed genes include K-Ras, MCL1, ENTPD1 (CD39) and TIM-3. The role and biological importance for these target genes is briefly discussed in Table 12.

[6] = system: 4T1 mouse tumor cells; assay: Re-challenge of surviving treated mice with 4T1 cells (Example 4.4); assay type: in vivo
Method: To investigate the long-term immunity in miRNA-193a treated mice against 4T1 cells, on day 75 after inoculation, mice treated with miRNA-193a and 8 naïve (non-tumor bearing) mice were re-challenged by subcutaneous injection of 3×10^5 4T1 mouse tumor cells in PBS (0.1 mL/mouse) into the right front flank. TV and BW were monitored for 3 weeks. Then, to investigate the immunization status of miRNA-193a treated mice against other cell types, on day 101, mice treated with miRNA-193a and 8 naïve (non-tumor bearing) mice were re-challenged by subcutaneous injection of H22 (mouse liver tumor cells) cells in PBS (0.1 mL/mouse) into the right lower flank.

[7] = system: subq human A2058 melanoma tumors; assay: Tumor growth inhibition in mice bearing subq A2058 tumors (Example 4.2); assay type: in vivo
Method: To determine TGI effects, the T/C (tumor/control) ratio was determined by calculating the relative percentage increase in TV (tumor volume) for the individual mice of each group (TV of the day of randomization as reference point), and then dividing the group median relative increase in TV for the treated groups by that for the PBS group. Outliers (with respect to individual TVs) within each treatment group were determined by using the formulas Q1−1.5×IQR (lower limit) and Q3+1.5×IQR (upper limit).
Statistical analysis was performed using Graphpad Prism 7. A two-tailed, non-parametric Mann-Whitney test was used to calculate differences in relative tumor volumes (TV on day ‘X’ divided by TV on the day of randomization). In all statistical tests, the effect of the test items was compared to the PBS group. A p-value <0.05 was considered statistically significant.
Four to six weeks old female athymic nude mice (Crl:NU(NCr)-Foxn1nu; Charles River) were unilaterally and subcutaneously injected in the flank with 1×10^7 A2058 cells in 50% matrigel (0.2 mL/mouse). At the time of randomization, the TVs (tumor volumes) ranged between 139.4 and 245.5 mm3 (median 161.3, IQR=149.9-175.1). Body weights and TVs (caliper measurements) were determined three times/week. […]

miRNA-193a: duplex of the miRNA-193a-3p of SEQ ID NO: 218 (mimic, sense) with antisense strand SEQ ID NO: 219; naked in vitro, formulated in vivo (sense UGGGACUUUGUAGGCCAGUUTT; antisense AACUGGCCUACAAAGUCCCAGU; chemistry not given here; listed as Homo sapiens)
Motility (18 to 24 h) [1]: ↓
Motility (18 to 24 h) [2]: ↓
Motility (18 to 24 h) [3]: ↓
TGI effects (AFP levels, tumor weights) [4]: significant TGI effects
Target mRNAs expression in tumor [5]: significant reduction
Treated mice that showed tumor take when re-challenged with 4T1 cells ([6]; re-challenge day 75): 3 mice
Tumor take/growth after re-challenge with 4T1 cells ([6]; re-challenge day 75, 14 days post end of treatment, vs naïve mice): Pronounced prevention of tumor take/growth
T/C (relative tumor volume) ([7]; 3 mg/kg iv QDx5 then BIW, Table 1 entry 1 nanoparticles, 12 days after start of treatment): 0.44
TGI effects ([7]; formulated in nanoparticles according to the invention, 3 mg/kg iv): significant TGI effects

Source: patent US20210038732A1, “ANTICANCER MICRORNA AND LIPID FORMULATIONS THEREOF” (INTERNA TECHNOLOGIES B.V., priority 2018, published 2021)
